Reference: US7655657B2, “Fused bicycloheterocycle substituted quinuclidine derivatives” (Abbott Laboratories, priority 2003, dated 2010)
Counter-ions that a name gives are not always drawn. Like-named read-outs stand apart in the source and are kept apart here.

Columns and labels:
hERG ion channel = hERG ion channel (Homo sapiens, UniProt Q12809); assay: [3H]-dofetilide binding to membranes from HERG-transfected HEK cells; conditions: for selectivity ratio at 45 min: human, membrane preparations from HERG-transfected HEK cells, pH 7.4, probe [3H]-dofetilide
Description: Membrane aliquots were thawed and homogenized again in a glass Dounce homogenizer (approximately 10 passes). Test compounds were diluted (6 concentrations at half-log intervals) from DMSO stock solutions in assay buffer (135 mM NaCl, 5 mM KCl, 0.8 mM MgCl2, 10 mM HEPES, 10 mM glucose, 1 mM EGTA, 0.01% BSA, pH 7.4), and tested in duplicate at each concentration. The following were added to each 200 μl well of a 96-well polystyrene plate (Packard Optiplate, cat. # 6005290): 20 μl of assay binding buffer (for total bounds), or 1 μM astemizole (for non-specific bounds), or test compound, 50 μl of [^3H]-dofetilide, and 130 μl of membrane homogenate (final protein concentration=30 μg per well). The plates were incubated at room temperature for 45 m, aspirated onto GF/B filter plates, and washed with 2 ml of cold wash buffer. The radioactivity was counted in a Packard Topcount Scintillation Counter after addition of 50 μl of scintillant (Packard Microscint-20, cat. # 6013621). The data were analyzed with a four-parameter logistic equation (PRISM™, Graphpad or Assay Explorer™, MDL). Ki values were derived by means of the Cheng and Prusoff (1973) equation (Ki=IC50/1+[ligand]/Kd) using Kd values for [^3H]-dofetilide obtained from previously performed saturation assays (Diaz et al., 2004). […] Each Ki represents an average of at least two independent determinations.
Thus, binding affinities to the hERG channel were expressed in Ki value, i.e. Ki hERG.

α7 nAChRs = target: T1, α7 nAChRs (Rattus norvegicus, UniProt Q05941); assay: [3H]-methyllycaconitine (MLA) binding assay
T1 construct: Membrane enriched fractions from rat brain minus cerebellum; tissue ABS Inc., Wilmington, Del; host or cells: rat brain minus cerebellum
Description: To determine the effectiveness of representative compounds of this invention as α7 nAChRs, the compounds of the invention were evaluated according to the [3H]-methyllycaconitine (MLA) binding assay and considering the [^3H]-cytisine binding assay, which were performed as described below.
[^3H]-Methyllycaconitine (MLA) Binding
Binding conditions were similar to those for [^3H]-cytisine binding. Membrane enriched fractions from rat brain minus cerebellum (ABS Inc., Wilmington, Del.) were slowly thawed at 4° C., washed and resuspended in 30 volumes of BSS-Tris buffer (120 mM NaCl, 5 mM KCl, 2 mM CaCl2, 2 mM MgCl2, and 50 mM Tris-Cl, pH 7.4, 22° C.). Samples containing 100-200 μg of protein, 5 nM [^3H]-MLA (25 Ci/mmol; Perkin Elmer/NEN Life Science Products, Boston, Mass.) and 0.1% bovine serum albumin (BSA, Millipore, Bedford, Mass.) were incubated in a final volume of 500 μL for 60 minutes at 22° C. Seven log-dilution concentrations of each compound were tested in duplicate. Non-specific binding was determined in the presence of 10 μM MLA. Bound radioactivity was isolated by vacuum filtration onto glass fiber filter plates prewetted with 2% BSA using a 96-well filtration apparatus (Packard Instruments, Meriden, Conn.) and were then rapidly rinsed with 2 mL of ice-cold BSS. Packard MicroScint-20® scintillation cocktail (40 μL) was added to each well and radioactivity was determined using a Packard TopCount® instrument. The IC50 values were determined by nonlinear regression in Microsoft Excel® software. Ki values were calculated from the IC50s using the Cheng-Prusoff equation, where Ki=IC50/1+[Ligand]/KD].

[1] = rat brain minus cerebellum membranes, 5 nM [3H]-MLA, read-out: α7 binding [3H]MLA Ki

T1 sequence (Q05941 23-502): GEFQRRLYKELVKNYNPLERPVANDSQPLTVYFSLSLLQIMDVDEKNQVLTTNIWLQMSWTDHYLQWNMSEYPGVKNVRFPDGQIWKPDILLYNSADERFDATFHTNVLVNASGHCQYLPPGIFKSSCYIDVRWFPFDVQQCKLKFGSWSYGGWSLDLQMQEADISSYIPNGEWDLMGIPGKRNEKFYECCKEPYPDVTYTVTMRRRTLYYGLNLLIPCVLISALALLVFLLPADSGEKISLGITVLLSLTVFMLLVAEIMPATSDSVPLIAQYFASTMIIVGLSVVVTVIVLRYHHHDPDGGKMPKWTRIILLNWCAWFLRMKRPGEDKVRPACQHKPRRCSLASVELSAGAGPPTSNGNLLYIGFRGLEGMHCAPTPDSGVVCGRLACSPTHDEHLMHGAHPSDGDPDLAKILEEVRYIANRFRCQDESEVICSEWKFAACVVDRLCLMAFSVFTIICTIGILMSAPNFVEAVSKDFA
Chain of hERG ion channel (Q12809 whole entry): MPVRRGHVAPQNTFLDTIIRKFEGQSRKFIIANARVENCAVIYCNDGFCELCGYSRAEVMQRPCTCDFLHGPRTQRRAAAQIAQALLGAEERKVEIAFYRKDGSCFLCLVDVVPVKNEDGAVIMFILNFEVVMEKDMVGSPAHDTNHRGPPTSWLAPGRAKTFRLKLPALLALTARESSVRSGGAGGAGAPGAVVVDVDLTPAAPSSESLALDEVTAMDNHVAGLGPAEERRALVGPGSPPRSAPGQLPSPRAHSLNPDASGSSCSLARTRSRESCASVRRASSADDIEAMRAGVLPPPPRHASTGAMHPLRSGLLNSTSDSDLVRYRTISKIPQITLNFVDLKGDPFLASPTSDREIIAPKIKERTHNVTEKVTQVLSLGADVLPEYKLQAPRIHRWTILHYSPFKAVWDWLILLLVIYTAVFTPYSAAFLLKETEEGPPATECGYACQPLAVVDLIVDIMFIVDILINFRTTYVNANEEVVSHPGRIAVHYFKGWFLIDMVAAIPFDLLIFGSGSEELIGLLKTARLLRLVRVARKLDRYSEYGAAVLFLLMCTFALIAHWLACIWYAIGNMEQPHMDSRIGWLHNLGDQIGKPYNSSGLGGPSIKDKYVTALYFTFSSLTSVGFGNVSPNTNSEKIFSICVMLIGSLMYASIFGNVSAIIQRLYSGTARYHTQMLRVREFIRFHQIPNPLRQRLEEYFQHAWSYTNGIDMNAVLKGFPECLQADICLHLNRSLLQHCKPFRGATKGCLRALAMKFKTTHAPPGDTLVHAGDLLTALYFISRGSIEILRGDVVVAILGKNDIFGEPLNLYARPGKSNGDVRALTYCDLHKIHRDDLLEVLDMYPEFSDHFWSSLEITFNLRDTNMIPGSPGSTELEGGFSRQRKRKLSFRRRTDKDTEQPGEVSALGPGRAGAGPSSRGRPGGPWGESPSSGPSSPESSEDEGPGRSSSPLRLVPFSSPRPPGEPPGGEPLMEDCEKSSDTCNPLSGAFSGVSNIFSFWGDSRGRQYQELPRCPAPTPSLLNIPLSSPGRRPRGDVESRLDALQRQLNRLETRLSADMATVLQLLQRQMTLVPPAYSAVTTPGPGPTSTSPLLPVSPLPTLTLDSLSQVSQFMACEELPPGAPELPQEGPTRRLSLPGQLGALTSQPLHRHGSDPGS

SMILES	Ki (hERG ion channel)	selectivity ratio at 45 min (hERG ion channel)	Ki (α7 nAChRs; [1])	Ki (α7 nAChRs)
c1cc2cc(-c3ccc(O[C@H]4CN5CCC4CC5)nn3)ccc2o1 [B, (R)-3-[6-(Benzofuran-5-yl)-pyridazin-3-yloxy]-1-aza-bicyclo[2.2.2]octane trifluoroacetate, reference compound]	4090 nM	29	142 nM	
C1=Cc2cc(-c3ccc(O[C@H]4CN5CCC4CC5)nn3)ccc2C1 [D, (R)-3-[6-(1H-Inden-5-yl)-pyridazin-3-yloxy]-1-aza-bicyclo[2.2.2]octane trifluoroacetate, reference compound]	2090 nM	133	15.7 nM	
c1cc2c(cc1-c1ccc(O[C@H]3CN4CCC3CC4)nn1)CCC2 [E, (R)-3-(6-Indan-5-yl-pyridazin-3-yloxy)-1-aza-bicyclo[2.2.2]octane trifluoroacetate, reference compound]	1680 nM	50	33.9 nM	
c1cc2cc(-c3ccc(O[C@H]4CN5CCC4CC5)nn3)ccc2[nH]1 [Example 9, 5-{6-[(3R)-1-Azabicyclo[2.2.2]oct-3-yloxy]pyridazin-3-yl}-1H-indole]	10900 nM	1620	6.7 nM	
Cc1c[nH]c2ccc(-c3ccc(O[C@H]4CN5CCC4CC5)nn3)cc12 [Example 10, 5-{6-[(3R)-1-Azabicyclo[2.2.2]oct-3-yloxy]pyridazin-3-yl}-3-methyl-1H-indole]	5200 nM	1680		3.1 nM
c1cc(-c2cnc(O[C@H]3CN4CCC3CC4)nc2)c2cc[nH]c2c1 [Example 12, 4-{2-[(3R)-1-Azabicyclo[2.2.2]oct-3-yloxy]pyrimidin-5-yl}-1H-indole]	8830 nM	516		17.1 nM
Nc1nc2ccc(-c3ccc(O[C@H]4CN5CCC4CC5)cc3)cc2s1 [Example 16, 6-{4-[(3R)-1-Azabicyclo[2.2.2]oct-3-yloxy]phenyl}-1,3-benzothiazol-2-amine]	1510 nM	888		1.7 nM
Cc1n[nH]c2ccc(-c3ccc(O[C@H]4CN5CCC4CC5)nn3)cc12 [Example 20, (R)-3-[6-(3-Methyl-1H-indazol-5-yl)-pyridazin-3-yloxy]-1-aza-bicyclo[2.2.2]octane fumarate]	13000 nM	797	16.3 nM	
CN(C)Cc1c[nH]c2ccc(-c3ccc(O[C@H]4CN5CCC4CC5)nn3)cc12 [Example 22, (R)-{5-[6-(1-Aza-bicyclo[2.2.2]oct-3-yloxy)-pyridazin-3-yl]-1H-indol-3-ylmethyl}-dimethyl-amine bis(fumarate)]	37300 nM	669	55.8 nM	
O=C1Cc2cc(-c3ccc(O[C@H]4C[N+]5([O-])CCC4CC5)nn3)ccc2N1 [Example 27, 5-{6-[(3R)-1-Oxy-1-Aza-bicyclo[2.2.2]oct-3-yloxy]-pyridazin-3-yl}-1,3-dihydro-indol-2-one bis(hydrogen chloride)]	> 50000 nM	> 4000	13.9 nM	
c1cc2cc(-c3ccc(O[C@@H]4CN5CCC4CC5)nn3)ccc2[nH]1 [Example 30, (S)-3-[6-(1H-Indol-5-yl)-pyridazin-3-yloxy]-1-aza-bicyclo[2.2.2]octane fumarate]	12700 nM	2960	4.3 nM	
c1cc2cc(-c3ccc(O[C@H]4CN5CCC4CC5)nc3)ccc2[nH]1 [Example 31, (R)-3-[5-(1H-Indol-5-yl)-pyridin-2-yloxy]-1-aza-bicyclo[2.2.2]octane trifluoroacetate]	2570 nM	339	7.6 nM	
c1ccc2cc(-c3ccc(O[C@H]4CN5CCC4CC5)nn3)ccc2c1 [Example A, (R)-3-(6-Naphthalen-2-yl-pyridazin-3-yloxy)-1-aza-bicyclo[2.2.2]octane trifluoroacetate, reference compound]	838 nM	11	78.9 nM	
c1ccc2oc(-c3ccc(O[C@H]4CN5CCC4CC5)nn3)cc2c1 [Example C, (R)-3-[6-(Benzofuran-2-yl)-pyridazin-3-yloxy]-1-aza-bicyclo[2.2.2]octane trifluoroacetate, reference compound]	392 nM	2	162 nM	
